Counter-ions that a name gives are not always drawn.
What was measured:
DNA-PK = DNA-PK (Homo sapiens (Human), UniProt P78527); assay: DNA-PK Enzyme-Linked Immunosorbent Assay (phosphorylation of GST-p53 (1-101) peptide); format: biochemical; details: ELISA
Method in brief: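 ELISA with plate-bound GST-p53 (1-101) phosphorylated by DNA-PK (0.1 μg/mL final) with 20 μM ATP for 1 h at 25 °C. Compounds tested over 10 3-fold doses from 100 nM top final. Phospho-p53 Ser15 detected by antibody, HRP and TMB, absorbance at 450 nm.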

ATM = ATM (Homo sapiens (Human), UniProt Q13315); assay: ATM in Cell Western Assay (pKAP1 in etoposide-treated MCF-7 cells); format: cell-based
ATM, sequence (Q13315 whole entry): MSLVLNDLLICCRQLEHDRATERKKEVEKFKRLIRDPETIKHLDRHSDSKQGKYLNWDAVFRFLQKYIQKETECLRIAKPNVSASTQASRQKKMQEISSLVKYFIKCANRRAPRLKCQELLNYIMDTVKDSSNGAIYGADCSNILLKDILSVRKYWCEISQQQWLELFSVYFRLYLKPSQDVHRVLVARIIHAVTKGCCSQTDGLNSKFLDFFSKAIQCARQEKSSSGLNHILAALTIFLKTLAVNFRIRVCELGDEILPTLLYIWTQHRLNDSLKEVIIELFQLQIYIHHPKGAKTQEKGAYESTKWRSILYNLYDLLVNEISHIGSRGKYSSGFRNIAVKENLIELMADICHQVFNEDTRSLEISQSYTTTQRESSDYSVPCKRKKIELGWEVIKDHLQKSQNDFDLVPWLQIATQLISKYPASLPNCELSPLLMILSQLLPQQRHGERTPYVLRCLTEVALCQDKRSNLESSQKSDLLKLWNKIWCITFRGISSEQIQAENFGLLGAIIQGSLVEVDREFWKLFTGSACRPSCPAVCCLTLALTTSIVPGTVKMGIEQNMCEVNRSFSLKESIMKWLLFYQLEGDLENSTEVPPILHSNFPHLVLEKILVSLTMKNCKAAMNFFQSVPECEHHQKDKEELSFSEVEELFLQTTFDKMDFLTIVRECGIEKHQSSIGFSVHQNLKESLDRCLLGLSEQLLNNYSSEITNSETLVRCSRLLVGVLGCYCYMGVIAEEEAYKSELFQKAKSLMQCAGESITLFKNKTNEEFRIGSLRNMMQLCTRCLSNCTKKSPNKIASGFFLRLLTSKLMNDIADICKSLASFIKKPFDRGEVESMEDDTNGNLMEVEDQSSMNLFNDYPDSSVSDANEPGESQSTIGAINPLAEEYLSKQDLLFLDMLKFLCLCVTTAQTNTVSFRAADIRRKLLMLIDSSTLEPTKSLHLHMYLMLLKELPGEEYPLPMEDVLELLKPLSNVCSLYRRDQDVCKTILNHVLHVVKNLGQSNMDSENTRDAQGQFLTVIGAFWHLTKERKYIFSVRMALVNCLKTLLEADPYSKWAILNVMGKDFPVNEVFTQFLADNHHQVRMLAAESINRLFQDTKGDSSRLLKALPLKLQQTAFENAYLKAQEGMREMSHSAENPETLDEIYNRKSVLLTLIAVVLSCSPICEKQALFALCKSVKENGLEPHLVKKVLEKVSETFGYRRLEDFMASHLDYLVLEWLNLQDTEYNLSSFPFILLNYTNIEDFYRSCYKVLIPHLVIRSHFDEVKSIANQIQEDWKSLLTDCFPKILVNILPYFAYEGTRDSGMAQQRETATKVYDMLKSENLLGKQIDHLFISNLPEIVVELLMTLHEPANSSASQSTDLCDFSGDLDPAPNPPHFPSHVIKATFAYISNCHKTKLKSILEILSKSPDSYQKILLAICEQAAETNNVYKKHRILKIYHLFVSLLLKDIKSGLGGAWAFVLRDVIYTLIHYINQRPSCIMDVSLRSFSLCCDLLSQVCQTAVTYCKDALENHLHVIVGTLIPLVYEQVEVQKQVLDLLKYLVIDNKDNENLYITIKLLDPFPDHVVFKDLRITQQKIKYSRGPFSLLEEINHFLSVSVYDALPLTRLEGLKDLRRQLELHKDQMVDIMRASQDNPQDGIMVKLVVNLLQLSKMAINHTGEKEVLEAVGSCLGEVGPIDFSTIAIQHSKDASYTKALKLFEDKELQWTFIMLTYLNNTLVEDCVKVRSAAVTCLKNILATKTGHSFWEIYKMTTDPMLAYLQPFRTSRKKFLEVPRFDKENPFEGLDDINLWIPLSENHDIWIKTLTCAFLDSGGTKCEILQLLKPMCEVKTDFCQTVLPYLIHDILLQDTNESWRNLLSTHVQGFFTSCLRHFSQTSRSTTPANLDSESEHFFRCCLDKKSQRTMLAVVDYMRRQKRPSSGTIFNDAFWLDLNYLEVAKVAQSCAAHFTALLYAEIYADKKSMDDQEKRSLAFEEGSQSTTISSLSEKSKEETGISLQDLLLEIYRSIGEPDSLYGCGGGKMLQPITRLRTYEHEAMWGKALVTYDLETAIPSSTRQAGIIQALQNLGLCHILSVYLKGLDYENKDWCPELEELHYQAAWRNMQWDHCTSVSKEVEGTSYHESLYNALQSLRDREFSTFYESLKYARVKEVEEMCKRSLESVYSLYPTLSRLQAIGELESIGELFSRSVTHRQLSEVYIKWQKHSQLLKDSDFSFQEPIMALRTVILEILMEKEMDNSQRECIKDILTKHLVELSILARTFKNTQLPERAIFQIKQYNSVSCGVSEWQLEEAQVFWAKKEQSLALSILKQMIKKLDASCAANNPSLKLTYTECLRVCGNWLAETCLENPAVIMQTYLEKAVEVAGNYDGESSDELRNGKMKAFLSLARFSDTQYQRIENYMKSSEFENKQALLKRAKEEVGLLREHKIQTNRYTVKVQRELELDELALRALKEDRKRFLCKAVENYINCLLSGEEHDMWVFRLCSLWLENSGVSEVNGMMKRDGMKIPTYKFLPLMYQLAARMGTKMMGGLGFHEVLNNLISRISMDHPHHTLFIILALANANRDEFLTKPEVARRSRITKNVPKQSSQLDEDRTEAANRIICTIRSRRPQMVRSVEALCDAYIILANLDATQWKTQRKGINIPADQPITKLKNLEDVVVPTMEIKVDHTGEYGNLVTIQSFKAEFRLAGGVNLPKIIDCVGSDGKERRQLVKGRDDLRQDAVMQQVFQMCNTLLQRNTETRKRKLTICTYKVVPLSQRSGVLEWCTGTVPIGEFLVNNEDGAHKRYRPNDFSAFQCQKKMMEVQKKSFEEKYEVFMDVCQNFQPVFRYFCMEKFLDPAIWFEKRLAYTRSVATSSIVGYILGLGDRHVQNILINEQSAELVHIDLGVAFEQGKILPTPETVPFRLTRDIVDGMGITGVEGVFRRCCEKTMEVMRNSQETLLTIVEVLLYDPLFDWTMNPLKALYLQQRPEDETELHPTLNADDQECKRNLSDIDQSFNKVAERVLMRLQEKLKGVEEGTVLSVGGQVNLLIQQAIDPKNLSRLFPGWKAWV
Method in brief: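 Cells received compounds in a 10-dose, 3-fold series from a 1 μM final top concentration, then 100 μM etoposide, for 1 hr at 37° C. They were then fixed with paraformaldehyde and permeabilized with 0.1% Triton X-100. After immunostaining, plates were scanned on an infrared imager.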

[1] = MCF-7 cells, etoposide 100 μM, 1 hr, pKAP1 readout

Compound	IC50 (DNA-PK; 20 μM ATP)	IC50 (ATM; pKAP1 in etoposide-treated MCF-7 cells)	IC50 (DNA-PK; ATP 20 μM)	IC50 (ATM; [1])
CN(C)CCCOc1ncc(-c2ccc3ncc4c(c3c2)C2(CC2)C(=O)N4C)cc1NS(=O)(=O)c1ccc(Cl)cc1 [Example 128, 4-Chloro-N-(2-(3-(dimethylamino)propoxy)-5-(3′-methyl-2′-oxo-2′,3′-dihydrospiro[cyclopropane-1,1′-pyrrolo[2,3-c]quinolin]-8′-yl)pyridin-3-yl)benzenesulfonamide hydrochloride]			< 0.5 nM	1 to 100 nM
CN1C(=O)C2(CCC2)c2c1cnc1ccc(-c3cnc(OCCCN4CCOCC4)c(NS(C)(=O)=O)c3)cc21 [Example 305, N-(5-(3′-Methyl-2′-oxo-2′,3′-dihydrospiro[cyclobutane-1,1′-pyrrolo[2,3-c]quinolin]-8′-yl)-2-(3-morpholinopropoxy)pyridin-3-yl)methanesulfonamide]			1 to 100 nM	1 to 100 nM
CCCS(=O)(=O)Nc1cc(-c2ccc3ncc4c(c3c2)C2(CC2)C(=O)N4C)cnc1OCCCN(C)C [Example 77, N-(2-(3-(Dimethylamino)propoxy)-5-(3′-methyl-2′-oxo-2′,3′-dihydrospiro [cyclopropane-1,1′-pyrrolo [2,3-c]quinolin]-8′-yl)pyridin-3-yl)propane-1-sulfonamide]			1 to 100 nM	1 to 100 nM
CN1C(=O)C2(CCC2)c2c1cnc1ccc(-c3cnc(N4CCC(N5CCCCC5)CC4)c(NS(=O)(=O)C4CC4)c3)cc21 [Example 207, N-(2-([1,4′-Bipiperidin]-1′-yl)-5-(3′-methyl-2′-oxo-2′,3′-dihydrospiro[cyclobutane-1,1′-pyrrolo[2,3-c]quinolin]-8′-yl)pyridin-3-yl)cyclopropanesulfonamide hydrochloride]			< 0.5 nM	1 to 100 nM
CN(C)CCCOc1ncc(-c2ccc3ncc4c(c3c2)C2(CCOCC2)C(=O)N4C)cc1NS(=O)(=O)c1ccccc1 [Example 33, N-(2-(3-(Dimethylamino)propoxy)-5-(3′-methyl-2′-oxo-2,2′,3′-,3′-,5,6-hexahydrospiro[pyran-4,1′-pyrrolo[2,3-c]quinolin]-8′-yl)pyridin-3-yl)benzenesulfonamide]			1 to 100 nM	1 to 100 nM
COc1cc(-c2ccc3ncc4c(c3c2)C2(CC2)C(=O)N4C)cnc1OCCCN(C)C [Example 54, 8′-(6-(3-(Dimethylamino)propoxy)-5-methoxypyridin-3-yl)-3′-methylspiro[cyclopropane-1,1′-pyrrolo[2,3-c]quinolin]-2′(3′-H)-one]			> 100 nM	0.5 to 1 nM

Second part, the compound after the results:

IC50 (DNA-PK; 20 μM ATP)	IC50 (ATM; pKAP1 in etoposide-treated MCF-7 cells)	IC50 (DNA-PK; ATP 20 μM)	IC50 (ATM; [1])	Compound
1 to 100 nM	1 to 100 nM			CO[C@H]1C[C@@]2(C1)C(=O)N(C)c1cnc3cc(F)c(-c4cnc(OCCNC(C)C)c(NS(=O)(=O)C5CC5)c4)cc3c12 [Example 388, trans-N-{5-(7′-Fluoro-3-methoxy-3 methyl-2′-oxo-2′,3′-dihydrospiro [cyclobutane-1,1′-pyrrolo[2,3-c]quinolin]-8′-yl)-2-(2-(isopropylamino)ethoxy)pyridin-3-yl)cyclopropanesulfonamide]
		1 to 100 nM	1 to 100 nM	CN(C)CCCOc1ncc(-c2ccc3ncc4c(c3c2)C2(CCC2)C(=O)N4C)cc1NS(=O)(=O)c1cccc(C(F)(F)F)c1 [Example 150, N-(2-(3-(Dimethylamino)propoxy)-5-(3′-methyl-2′-oxo-2′,3′-dihydrospiro[cyclobutane-1,1′-pyrrolo[2,3-c]quinolin]-8′-yl)pyridin-3-yl)-3-(trifluoromethyl)benzenesulfonamide]
		< 0.5 nM	1 to 100 nM	CN(C)c1ncc(-c2ccc3ncc4c(c3c2)C2(CCC2)C(=O)N4C)cc1NS(=O)(=O)c1ccccc1 [Example 10, N-(2-(Dimethylamino)-5-(3′-methyl-2′-oxo-2′,3′-dihydrospiro[cyclobutane-1,1′-pyrrolo[2,3-c]quinolin]-8′-yl)pyridin-3-yl)benzenesulfonamide]
